Experiment [1] in a line: Inhibition of Mycobacterium tuberculosis uracil-DNA glycosylase by fluorescence based assay.
Experiment [2] in a line: Inhibition of Mycobacterium tuberculosis uracil-DNA glycosylase expressed in Escherichia coli BL21 (DE3) rosetta cells incubated for 10 sec under shaking condition and measured every 2 mins for 40 mins by fluorescence based assay.
Experiment [3] concerns Mycobacterium tuberculosis. Put plainly: Potency index, ratio of uracil IC50 to test compound IC50 for inhibition of Mycobacterium tuberculosis uracil-DNA glycosylase.

What is called IC50 is the concentration that gives 50% inhibition. A lower IC50 goes with higher potency. For `Cc1ccc(CCOc2ccc(C[C@@H]3SC(=O)NC3=O)cc2)nc1`, in experiment [1], the concentration for half-maximal inhibition (IC50) came out at 8.82 mM.

Regarding `CC(=O)N(CC(O)CO)c1c(I)c(C(=O)NCC(O)CO)c(I)c(C(=O)NCC(O)CO)c1I` (stereo not given) [IOHEXOL], the IC50 in experiment [1] is 0.6 mM.

For `O=c1cc(Nc2ccc(N3CCCCC3)cc2)[nH]c(=O)[nH]1`, in experiment [1], the midpoint of inhibition, the IC50, lay at 0.8 mM.

As for `CC(C)c1ccc(OCC(=O)Nc2c[nH]c(=O)[nH]c2=O)cc1`, the IC50 in experiment [1] turned out to be 7.63 mM.

`CC(C)(C)[C@H](COc1ccccc1F)NC(=O)c1nc(=O)[nH][nH]1` displayed an IC50 in experiment [1] of 11.3 mM.

`O=C(NCc1nc2ccc(Cl)cc2[nH]1)c1c[nH]c(=O)[nH]c1=O` gave an IC50 in experiment [1] of 6.53 mM. Compared with the last compound, the IC50 is about 1.7-fold lower.

The compound `CC(C)(Cc1cccc(Cl)c1)C(=O)NCCc1n[nH]c(=O)[nH]1` had an IC50 in experiment [1] of 4.08 mM.

The compound `Cc1ccc(-c2csc3c(=O)n(CC#N)cnc23)cc1` yielded an IC50 in experiment [1] of 7.93 mM.

In the case of `CCC(C)(C)C(=O)O[C@H]1C[C@@H](C)C=C2C=C[C@H](C)[C@H](CC[C@@H]3C[C@@H](O)CC(=O)O3)[C@H]21` [SIMVASTATIN], in experiment [1], half-maximal inhibition (IC50) was put at 1.04 mM.

The compound `O=c1cc[nH]c(=O)[nH]1` [URACIL] returned an IC50 in experiment [2] of 2.05 mM. This lies in the millimolar range.

Turning to `O=C1CN(/N=C/c2ccc([N+](=O)[O-])o2)C(=O)N1` [NITROFURANTOIN], in experiment [1], the IC50 worked out at 0.98 mM.

For `Cc1[nH]c(=O)[nH]c(=O)c1CC(=O)N(Cc1ccc2c(c1)OCO2)Cc1ccccc1F`, the Ratio IC50 in experiment [3] was found to be 15. In experiment [1], the IC50 was 0.14 mM.

For the compound `COc1ccc(C(=O)Nc2c[nH]c(=O)[nH]c2=O)cc1[N+](=O)[O-]`, 15.3 mM corresponded to half-maximal inhibition in experiment [1] (IC50).

As for `O=C(Nc1c[nH]c(=O)[nH]c1=O)c1cccc(N2C(=O)CCC2=O)c1`, in experiment [1], inhibition was half-maximal at 2.12 mM (IC50). This IC50 is about 7.2-fold lower than that of the compound before.

Source of the values: ChEMBL document CHEMBL5236574, “Identification of a new and diverse set of Mycobacterium tuberculosis uracil-DNA glycosylase (MtUng) inhibitors using structure-based virtual screening: Experimental validation and molecular dynamics studies” (Bioorg Med Chem Lett, 2022).
